According to patent publication US7459284B2, “Chemiluminescent acridinium compounds and analogues thereof as substrates of hydrolytic enzymes” (Siemens Healthcare Diagnostics Inc., priority 1999, dated 2008):
Where a name gives a salt, the structure may show the parent alone. Read-outs that look alike come from different tables or passages of the source.

Legend:
[1] = Light emission spectra by Fast Spectral Scanning System (FSSS); type: physicochemical
Description: The light emission spectra of compounds 1˜12 and 15˜18 were determined by a Fast Spectral Scanning System (FSSS) of Photo Research (a division of Kollmorgen Corp.) of Burbank, Calif., U.S.A. The experiment was carried out in a dark room. Each compound was dissolved in acetonitrile or N,N-dimethylformamide. The resulting concentrate was diluted with the same solvent to form the working solution, which upon flashing gave a light emission with an adequate intensity. A typical experiment utilized 10˜100 μg or more of the sample in 500 μl of the solvent contained in a 13×100 mm borosilicate test tube. The tube was placed on a test tube rack raised to a proper height. A piece of aluminum foil was placed on the back of the tube to enhance the detectability of the emitted light. The FSSS optical head was placed in front of the tube at an approximate distance of about 130 mm with its lens focused on the liquid in the tube. The sample solution was first treated with 0.35 ml of the Flashing Reagent #1 (Bayer Diagnostics) containing 0.1 N HNO3 and 0.5% H2O2. The room was then darkened, and 0.35 ml of the Flashing Reagent #2 (Bayer Diagnostics) containing 0.25 N NaOH and 0.5% ARQUAD was added to the reaction mixture immediately. (See U.S. Pat. No. 4,927,769, which is commonly assigned and incorporated herein by reference.) The light which was generated instantaneously following the addition of the Reagent #2 was recorded by FSSS for 5 seconds starting from about one second before the Reagent #2 was added.

[2] = Quantum yield when flashed with alkaline solution first, then hydrogen peroxide; type: physicochemical; conditions: 0.25 N sodium hydroxide with 0.5% AQUARD first, followed by 0.5% hydrogen peroxide
Description: More specifically, when a solution of 1 is treated with 0.25 N sodium hydroxide solution containing 0.5% AQUARD, followed by 0.5% hydrogen peroxide, the quantum yield of 1 is lowered by more than 30 fold. […] Thus, to the advantage of better distinction between the signals of certain chemiluminescent products and their substrates, preferably, said alkaline solution contains sodium hydroxide at concentration of 0.01 to 1.0 N, and AQUARD at concentration of 0.01 to 1%, and said hydrogen peroxide solution contains hydrogen peroxide at concentration of 0.001 to 5%. More preferably, said alkaline solution contains 0.25 N sodium hydroxide and 0.5% AQUARD, and said hydrogen peroxide solution contains 0.5% hydrogen peroxide.

alkaline phosphatase [3] = target: T1, alkaline phosphatase (Bos taurus, UniProt P19111); assay: Alkaline phosphatase assay using 2-Phos-DMAE (1) as chemiluminescent substrate; type: biochemical; conditions: 0.1 mM substrate, pH 9 Tris, 45° C., 1 hour; R2228P PMT, LL700 filter, 4° C.
T1 sequence (P19111 20-506): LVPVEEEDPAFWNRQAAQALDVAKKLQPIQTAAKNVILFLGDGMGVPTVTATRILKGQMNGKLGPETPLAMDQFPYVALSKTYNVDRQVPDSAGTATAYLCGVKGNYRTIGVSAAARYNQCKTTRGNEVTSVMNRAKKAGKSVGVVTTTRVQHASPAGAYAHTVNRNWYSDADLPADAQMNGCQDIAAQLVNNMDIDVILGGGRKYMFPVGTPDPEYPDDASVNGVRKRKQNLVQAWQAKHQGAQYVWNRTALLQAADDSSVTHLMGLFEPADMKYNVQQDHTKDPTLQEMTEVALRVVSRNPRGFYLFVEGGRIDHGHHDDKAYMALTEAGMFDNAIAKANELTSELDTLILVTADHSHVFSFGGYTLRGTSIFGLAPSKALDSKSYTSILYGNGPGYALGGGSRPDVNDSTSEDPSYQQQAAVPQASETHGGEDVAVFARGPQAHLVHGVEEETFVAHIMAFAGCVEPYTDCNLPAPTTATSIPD
Description: With one or more of the above approaches combined, several assay systems based on the principle of detecting the long emission signal generated by the action of AP on 2-Phos-DMAE (1) are constructed, and disclosed in the section of Examples. One example (Example 17) consists of the incubation of AP standards in a substrate solution containing 0.1 mM 2-Phos-DMAE (1), 1 mM magnesium chloride in 100 mM, pH 9 Tris buffer at 45° C. for 1 hour. The light outputs were measured on a luminometer equipped with a red-sensitive PMT (R2228P) and a long pass filter (LL700), which is placed in a 4° C. cold room. The sample was treated first with 0.25 N sodium hydroxide solution containing 0.5% AQUARD, immediately followed by 0.5% hydrogen peroxide.
The substrate solution of 2-Phos-DMAE (1) was prepared at 0.1 mM in 100 mM, pH 9.0 Tris buffer containing 1 mM MgCl2. […] The light outputs were measured for 2 seconds on Bayer Diagnostics Magic Lite Analyzer 1 (MLA-1) equipped with R268 PMT and two LL650 long wavelength pass filters (Corion, Lot No. CFS-002645). […]
According to Example 16, an assay of alkaline phosphatase was carried out by adding 5 μl of the AP standard to 95 μl of the substrate solution. […] The light outputs were measured for 2 seconds on MLA-1 equipped with R2228P PMT and a LL700 long wavelength pass filters, and the unit was pre-cooled in a cold room (4° C).

alkaline phosphatase [4] = target: T1, alkaline phosphatase; assay: Enzymatic conversion of substrate by alkaline phosphatase (HPLC analysis); type: biochemical; conditions: alkaline aqueous medium; about 1 hour
Description: A 1 mM DMF solution of the acridinium 3-enol-phosphate (13) was mixed with 150 μL of 100 mM Tris pH 9 also containing 1 mM MgCl2. Alkaline phosphatase (5 μl of a 2 mg/ml solution) was added and the reaction was incubated at room temperature for ˜1 hour. […] The product was isolated by semi-preparative HPLC using a 7.8×300 mm, C18 column. MALDI-TOF MS of the product indicated this was indeed the keto product (14): m/z 521.36 obs. (520.56 calc.).
A 20 μL DMF solution of the acridan (15) (1.7 mM) was combined with 180 μl of 0.15 M 2-amino-2-methyl-1-propanol pH 10.3 also containing 1 mM magnesium acetate. A clear blue solution was obtained (0.17 mM substrate), which was then treated with alkaline phosphatase (10^−10 moles). The blue color was discharged instantly. […] The reaction mixture was then evaluated by the FSSS to determine the light emission spectrum of the product, which is shown in FIG. 2N. The product was isolated by semi-preparative HPLC. […] (521.56 calc.).

[5] = strong alkaline solution; disclosed in WO 00/09487; cited from earlier work
[6] = FSSS, hydrogen peroxide in strong alkaline solution
[7] = spectral region with signal intensity above 5% of peak height, FSSS scanning limit 380-780 nm, flashed with 0.1 N HNO3/0.5% H2O2 then 0.25 N NaOH/0.5% ARQUAD

Compound	Emission Maximum [1, 6] [nm]	Emission Range [1, 7]	other results
COc1ccc2c(c1)c(C(=O)Oc1c(C)cc(C(=O)O)cc1C)c1cc(O)ccc1[n+]2C [Compound 10, (2′,6′-dimethyl-4′-carboxyl)phenyl 2-hydroxy-7-methoxy-10-methyl acridinium-9-carboxylate]	674	520-780^ nm	longer emission maxima than unmethoxylated compound 2 ([1]; 2-OH-7-MeO-DMAE vs 2-OH-DMAE): 60-70 nm
Cc1cc(C(=O)O)cc(C)c1OC(=O)c1c2ccccc2[n+](C)c2ccc(OP(=O)(O)O)cc12.[Na+].[Na+] [Compound 1, (2′,6′-dimethyl-4′-carboxyl)phenyl 10-methyl-2-Phosphoryloxy-acridinium-9-carboxylate bromide]	478	430-600 nm	lowering of quantum yield [2]: more than 30 fold; level of alkaline phosphatase detected (alkaline phosphatase [3]): below 1×10^−18 mole; conversion by alkaline phosphatase (alkaline phosphatase [4]): excellent substrate
Cc1cc(C(=O)O)cc(C)c1OC(=O)c1c2ccccc2[n+](C)c2cc(/C(=C/c3ccc(O)cc3)OP(=O)(O)O)ccc12 [Compound 13, (2′,6′-dimethyl-4′-carboxyl)phenyl 3-(β-phosphoryloxy-4′-hydroxystyryl)-10-methyl acridinium-9-carboxylate trifluoromethanesulfonate]			conversion by alkaline phosphatase (alkaline phosphatase [4]): complete conversion
C[n+]1c2ccccc2c(C(=O)Oc2ccccc2)c2cc(O)ccc21 [Compound 6, phenyl 2-hydroxy-10-methyl-acridinium-9-carboxylate trifluoromethanesulfonate]			Emission Maximum [1]: 600 nm; Emission Range [1]: 500-780^ nm
(2′,6′-dimethyl-4′-carboxyl)phenyl 3-(β-phosphoryloxy-4′-hydroxystyryl)-10-methyl acridan [Compound 15]	678	520-780^ nm	conversion by alkaline phosphatase (alkaline phosphatase [4]): clean conversion
C[n+]1c2ccccc2c(C(=O)Oc2ccc(O)cc2)c2ccccc21 [Compound 18, 4′-hydroxyphenyl 10-methyl acridinium-9-carboxylate trifluoromethanesulfonate]			Emission Maximum [1]: 452 nm; Emission Range [1]: 410-540 nm
COc1ccc2c(c1)c(C(=O)Oc1c(C)cc(C(=O)O)cc1C)c1cc(OP(=O)(O)O)ccc1[n+]2C.[Na+].[Na+] [Compound 9, (2′,6′-dimethyl-4′-carboxyl)phenyl 2-phosphoryloxy-7-methoxy-10-methyl acridinium-9-carboxylate]	476	440-600 nm	
Cc1cc(C(=O)O)cc(C)c1OC(=O)c1c2ccccc2[n+](CCCCS(=O)(=O)[O-])c2ccc(OP(=O)(O)O)cc12 [Compound 7, (2′, 6′-dimethyl-4′-carboxyl)phenyl 2-phosphoryloxy-10-sulfobutyl-acridinium-9-carboxylate]	474	430-600 nm	
Cc1cc(C(=O)O)cc(C)c1OC(=O)c1c2ccccc2[n+](C)c2ccc(O)cc12 [Compound 2, (2′,6′-dimethyl-4′-carboxyl)phenyl 2-hydroxy-10-methyl-acridinium-9-carboxylate trifluoroacetate]	602	500-780^ nm	bathochromic shift of emission maximum ([1]; compound 2 relative to compound 1): 128 nm; lowering of quantum yield [2]: basically not affected; emission λmax [5]: 604 nm
Cc1cc(C(=O)O)cc(C)c1OC(=O)c1c2ccccc2[n+](CCCCS(=O)(=O)[O-])c2ccc(O)cc12 [Compound 8, (2′, 6′-dimethyl-4′-carboxyl)phenyl 2-hydroxy-10-sulfobutyl-acridinium-9-carboxylate]	594	500-780^ nm	
Cc1cc(C(=O)OCc2ccccc2)cc(C)c1OC(=O)c1c2ccccc2[n+](C)c2ccc(O)cc12 [Compound 4, (2′,6′-dimethyl-4′-benzyl-oxycarbonyl)phenyl 2-hydroxy-10-methyl-acridinium-9-carboxylate trifluoroacetate]	604	500-780^ nm	
C[n+]1c2ccccc2c(C(=O)Oc2ccccc2)c2cc(OP(=O)(O)O)ccc21 [Compound 5, phenyl 10-methyl-2-Phosphoryloxy-acridinium-9-carboxylate trifluoroacetate]	478	430-600 nm	
CN1c2ccccc2C2(Oc3ccccc3OC2=O)c2cc(OP(=O)(O)O)ccc21 (centres unmarked) [Compound 11, 2-Phos-Spiroacridan]	474	430-600 nm	
Cc1cc(C(=O)OCc2ccccc2)cc(C)c1OC(=O)c1c2ccccc2[n+](C)c2ccc(OP(=O)(O)O)cc12 [Compound 3, (2′,6′-dimethyl-4′-benzyloxy-carbonyl)phenyl 2-phosphoryloxy-10-methyl-acridinium-9-carboxylate trifluoroacetate]	474	430-600 nm	
